From ChEMBL document CHEMBL1142100, “Hypericin activates L-type Ca2+ channels in cardiac myocytes” (J Nat Prod, 2007)
Calls of active or inactive are those of the source. The calls are words filed in the database; no cut-off is given here.

Legend:
Type in all cases: cell-based
Details in all cases: Cardiac atrium
Pelophylax lessonae [1] = assay: Activity at L-type calcium channel in frog atrial myocytes assessed as increase in Sr2+ current
Pelophylax lessonae [2] = assay: Inhibition of PP2A in frog atrial myocytes by microscystin assay
Pelophylax lessonae [3] = assay: Inhibition of NOS2 in frog atrial myocytes
Pelophylax lessonae [4] = assay: Decrease in cellular cGMP level in frog atrial myocytes at 4 uM by immunoassay; parameters: scale not given: the % may be the effect or the level left

Cc1cc(O)c2c(=O)c3c(O)cc(O)c4c5c(O)cc(O)c6c(=O)c7c(O)cc(C)c8c1c2c(c34)c(c78)c65
Activity (Pelophylax lessonae [1]): Dose-dependent effect | Activity (Pelophylax lessonae [2]): inactive | Activity (Pelophylax lessonae [3]): inactive | Activity (Pelophylax lessonae [4]): 69%
